Laboratory results published in US20250140486A1, “FUSED AROMATIC MOLECULES AS ELECTRODE MATERIALS” (Massachusetts Institute of Technology, priority 2021, published 2025).

Test: Solubility of the solids in organic and aqueous media / common solvents
Type: physicochemical

Which “solubility (form insoluble solids)” value (in both organic and aqueous media) does the source give for `Nc1c(N)c(=O)c2[nH]c3c(=O)c(N)c(N)c(=O)c3[nH]c2c1=O` [BTABQ, tetraamino-dihydrophenazine-1,4,6,9-tetrone] here?
The value was “insoluble”.

What about the solubility (in common NMR solvents) of the same molecule?
Its solubility is “insoluble”.

And the solubility (in common organic solvents)?
The solubility was “highly insoluble”.
